Experimental data published in patent US20260345573A1, “METHOD OF TREATMENT WITH ILOPERIDONE” (Vanda Pharmaceuticals Inc., priority 2023, published 2026).
Entries after “also recorded” stand apart in the source; their conditions may differ.

Columns and labels:
Type in all cases: in vivo, human
[1] = Study 3201: serum urate in patients with acute manic episodes associated with bipolar I disorder, by SLC2A9 rs7442295 genotype and sex; settings: for LS Mean Change (SE) in serum urate from baseline: 24 mg/day oral (12 mg bid)
Description: (§1) A multi-center, randomized, double-blind, placebo-controlled study is performed to evaluate the safety and efficacy of iloperidone for four (4) weeks in the treatment of patients with acute manic episodes associated with bipolar I disorder (“Study 3201”). Patients in the study are randomized to orally receive either iloperidone at a dose of 24 mg/day given in a divided dose as 12 mg twice daily (bid), or matched placebo.
These increases are illustrated in FIG. 1 using solid data points.
To test the hypothesis of altered urate serum levels in association with variants in the SLC2A9 gene, whole genome sequencing is conducted from blood samples, genotype status is obtained through standard data analysis, and linear models for SLC2A9 variants are performed on urate concentration in samples collected at baseline (corrected for PCs, age, sex) and samples collected at the end of the study (EOS).
As shown in FIGS. 3-4, the rs7442295 variant of interest has a statistically significant effect on iloperidone-induced change in serum urate levels from baseline to Day 28 in patients with bipolar disorder. FIG. 3 illustrates individual patient changes in serum urate (in μmol/L) from baseline to Day 28, grouped according to treatment group (iloperiodone or placebo) and carrier status for variant rs7442295, while FIG. 4 illustrates mean serum levels for at patient evaluations conducted at baseline and Day 28, separated according to treatment group (iloperidone or placebo) and patient carrier status for rs7442295. The significant interaction affecting change is particularly observed between genotype*sex*treatment (full model: Multiple R-squared: 0.09251, Adjusted R-squared: 0.07078, F-statistic: 4.256 on 8 and 334 DF, p=0.00006942).
This observation is statistically significant when comparing genotypes at BOS as well as when comparing GG with AG and AA genotypes between treatment and placebo group in both males and females combined. Table 2 (below) provides mean change from baseline to Day 28 by treatment group and carrier status for variant rs7442295, and Table 3 (below) provides LS mean change in serum urate from baseline to Day 28 evaluations for serum urate by treatment group and carrier status for variant rs7442295) (SD=standard deviation).

[2] = Study 3101: serum urate (uric acid) in subjects with acute schizophrenia, by SLC2A9 rs7442295 genotype
Description: (§2) A study is performed to evaluate the efficacy and safety of iloperidone compared with placebo and active control (ziprasidone) in subjects with acute schizophrenia (“Study 3101”). Patients are randomized to receive one of iloperidone at a dose of 24 mg/day given in a divided dose as 12 mg twice daily (bid), active comparator ziprasidone, or placebo. […] Uric acid results are converted to SI units using the conversion 1 mg/dL=59.5 μmol/L.
Results are provided in Table 6 below, including an increase of 28.0 μmol/L for iloperidone compared to a decrease of 4.2 μmol/L in placebo groups.
Patient genotypes are obtained via a commercial 500k SNP Gene Chip Human Mapping Array. To test the hypothesis of altered urate serum levels in association with variants in SLC2A9, linear models for SLC2A9 variants are performed on urate at baseline levels (corrected for PCs, age, sex) followed by samples collected at end of study (EOS).

[3] = Studies 3201 and 3101 (Examples 1 and 2), conclusions on serum urate
Description: as §1, §2

COc1cc(C(C)=O)ccc1OCCCN1CCC(c2noc3cc(F)ccc23)CC1 [Iloperidone, 1-[4-[3-[4-(6-flouro-1,2-benzisoxazol-3-yl)-1-piperidinyl]propoxy]-3-methoxyphenyl]ethanone]
Percentage of patients with serum urate above ULN ([1]; Baseline, female, genotype AA (4/42), ULN 394 μmol/l): 9.5%
Percentage of patients with serum urate above ULN ([1]; Baseline, female, genotype AG (3/39), ULN 394 μmol/l): 7.7%
Percentage of patients with serum urate above ULN ([1]; Baseline, female, genotype GG (0/7), ULN 394 μmol/l): 0.0%
Serum urate at baseline (SE) ([1]; Baseline, iloperidone group, bipolar mania, n=206): 323.0 (77.13), 206 μmol/L
Percentage of patients with serum urate above ULN ([1]; Baseline, male, genotype AA (6/60), ULN 453 μmol/l): 10.0%
Percentage of patients with serum urate above ULN ([1]; Baseline, male, genotype AG (1/41), ULN 453 μmol/l): 2.4%
Percentage of patients with serum urate above ULN ([1]; Baseline, male, genotype GG (1/12), ULN 453 μmol/l): 8.3%
Percentage of patients with serum urate above ULN ([1]; Baseline, male, genotype GG (1/12), ULN 453 μmol/l, listed as iloperidone): about 8.3%
LS Mean Difference (95% CI) in serum urate change vs placebo ([1]; Day 7, bipolar mania): 1.3 (−9.29, 11.88) μmol/L
LS Mean Change (SE) in serum urate from baseline ([1]; Day 7, bipolar mania, n=199): −2.7 (−4.07), 199 μmol/L
LS Mean Difference (95% CI) in serum urate change vs placebo ([1]; Day 14, bipolar mania): 15.3 (4.50, 26.15) μmol/L
LS Mean Change (SE) in serum urate from baseline ([1]; Day 14, bipolar mania, n=173): 12.6 (−4.28), 173 μmol/L
LS Mean Difference (95% CI) in serum urate change vs placebo ([1]; Day 21, bipolar mania): 21.0 (8.91, 33.18) μmol/L
LS Mean Change (SE) in serum urate from baseline ([1]; Day 21, bipolar mania, n=157): 19.1 (−5.24), 157 μmol/L
LS Mean Change (SE) in serum urate from baseline ([1]; Day 28 (endpoint), bipolar mania, n=142): 27.2 (−4.93), 142 μmol/L
LS Mean Change (SE) in serum urate from baseline ([1]; Day 28 (endpoint), bipolar mania, n=142, listed as iloperidone): 27.2 µmol/L
Fold greater increase in serum urate from baseline compared to placebo ([1]; Day 28, bipolar mania): 4 fold
LS Mean Difference (95% CI) in serum urate change vs placebo ([1]; Day 28, bipolar mania): 27.1 (14.94, 39.20) μmol/L
LS Mean Difference (95% CI) in serum urate change vs placebo ([1]; Day 28, genotype AA, female): 27.85 (2.93, 52.76) μmol/L
LS Mean Difference (95% CI) in serum urate change vs placebo ([1]; Day 28, genotype AA, male): 35.52 (12.82, 58.22) μmol/L
LS Mean Difference in serum urate change vs placebo ([1]; Day 28, genotype AA, 95% CI (14.82, 49)): 31.91 µmol/L
LS Mean Difference (95% CI) in serum urate change vs placebo ([1]; Day 28, genotype AG, female): −7.9 (−34.82, 19.03) μmol/L
LS Mean Difference (95% CI) in serum urate change vs placebo ([1]; Day 28, genotype AG, male): 40.79 (14.61, 66.96) μmol/L
LS Mean Difference in serum urate change vs placebo ([1]; Day 28, genotype AG, 95% CI (−4.18, 33.86)): 14.84 µmol/L
LS Mean Difference (95% CI) in serum urate change vs placebo ([1]; Day 28, genotype GG, female): 3.08 (−50.97, 57.13) μmol/L
LS Mean Difference (95% CI) in serum urate change vs placebo ([1]; Day 28, genotype GG, male): 102.96 (48.93, 156.99) μmol/L
LS Mean Difference in serum urate change vs placebo ([1]; Day 28, genotype GG, 95% CI (18.91, 94.99)): 56.95 µmol/L
Mean change from baseline in serum urate ([1]; Day 28, 24 mg/day, all genotypes, bipolar mania): 33.4 µmol/L
LS Mean Difference (95% CI) in serum urate change vs placebo ([1]; EOS (LOCF), genotype AA, female): 15.97 (−6.71, 38.64) μmol/L
LS Mean Difference (95% CI) in serum urate change vs placebo ([1]; EOS (LOCF), genotype AA, male): 18.99 (−0.89, 38.86) μmol/L
LS Mean Difference (95% CI) in serum urate change vs placebo ([1]; EOS (LOCF), genotype AG, female): −1.4 (−25.85, 23.06) μmol/L
LS Mean Difference (95% CI) in serum urate change vs placebo ([1]; EOS (LOCF), genotype AG, male): 19.58 (−2.91, 42.08) μmol/L
LS Mean Difference (95% CI) in serum urate change vs placebo ([1]; EOS (LOCF), genotype GG, female): 4.54 (−50.43, 59.52) μmol/L
LS Mean Difference (95% CI) in serum urate change vs placebo ([1]; EOS (LOCF), genotype GG, male): 88.45 (38.7, 138.21) μmol/L
LS Mean Difference in serum urate change vs placebo ([1]; EOS, genotype AA, 95% CI (3.19, 33.28)): 18.23 µmol/L
LS Mean Difference in serum urate change vs placebo ([1]; EOS, genotype AG, 95% CI (−8.27, 25.48)): 8.61 µmol/L
LS Mean Difference in serum urate change vs placebo ([1]; EOS, genotype GG, 95% CI (18.68, 92.13)): 55.4 µmol/L
Effect on serum urate (in words) ([1]; bipolar mania, vs placebo): statistically significant increase in serum urate; also recorded: associated with increases in serum urate compared to placebo
Iloperidone-associated increase in serum urate in rs7442295-G/G individuals (in words) ([1]; genotype GG, bipolar mania): significant in individuals who are homozygous for the rs7442295 (G) allele
Increase in serum urate in G/G patients (in words) ([1]; genotype GG, bipolar mania): nearly twice as large
Serum urate relative to ULN in G/G individuals treated with iloperidone (in words) ([1]; genotype GG, especially males, ULN 453 (male), 394 (female) μmol/l): a significant number of individuals (particularly homozygous G/G males) exceed the upper limit of normal (ULN); also recorded: above ULN value in individuals that are homozygous (GG) for the rs7442295 (G) allele
Fold increase in percentage of patients with high urate levels (above ULN) ([1]; male, genotype GG, baseline to end of study): approximately 4 fold
Serum urate at Day 0 (SE) ([2]; Day 0, iloperidone group, schizophrenia, n=300): 318.3 (73.19), 300 μmol/L
LS Mean Difference (95% CI) in serum urate change vs placebo ([2]; Day 14, schizophrenia): 18.4 (6.55. 29.93) μmol/L
LS Mean Change (SE) in serum urate from baseline ([2]; Day 14, 24 mg/day (12 mg bid), schizophrenia, n=276): 15.5 (58.85), 276 μmol/L
LS Mean Difference (95% CI) in serum urate change vs placebo ([2]; Day 28, genotype AA): 10.05 (14.90, 35.97) μmol/L
LS Mean Difference (95% CI) in serum urate change vs placebo ([2]; Day 28, genotype AG): 30.02 (−2.86, 57.63) μmol/L
LS Mean Difference (95% CI) in serum urate change vs placebo ([2]; Day 28, genotype GG): 52.4 (0.33, 104.45) μmol/L
Change from baseline in uric acid relative to ziprasidone arm (in words) ([2]; Day 28, schizophrenia): more than twice the change from baseline observed in the ziprasidone arm
Fold greater increase from baseline in blood uric acid compared to placebo ([2]; Day 28, schizophrenia): roughly 4 fold
LS Mean Difference (95% CI) in serum urate change vs placebo ([2]; Day 28, schizophrenia): 23.8 (9.16. 37.96) μmol/L
LS Mean Change (SE) in serum urate from baseline ([2]; Day 28, iloperidone 24 mg/day (12 mg bid), schizophrenia, n=206): 28.0 (4.05), 206 μmol/L
LS Mean Change (SE) in serum urate from baseline ([2]; Day 28, iloperidone 24 mg/day (12 mg bid), schizophrenia, n=206, listed as iloperidone): 28.0 µmol/L
Iloperidone-induced change in serum urate with GG genotype, by sex (in words) ([2]; genotype GG, male schizophrenia patients): particular pronounced in male schizophrenia patients
Effect on serum urate compared to placebo (in words) ([2]; schizophrenia, ANCOVA): statistically significant increase in serum urate
Effect on serum urate compared to placebo (in words) ([3]; bipolar disorder and schizophrenia): associated with increases in serum urate compared to placebo
Increase in serum urate in G/G patients (in words) ([3]; genotype G/G, both studies): nearly twice as large

O=C1Cc2cc(CCN3CCN(c4nsc5ccccc45)CC3)c(Cl)cc2N1 [ziprasidone]
LS mean change from baseline to endpoint in serum urate ([2]; ziprasidone active comparator arm, schizophrenia): 13.1 µmol/L
Increase in serum urate relative to iloperidone (in words) ([2]; ziprasidone arm, schizophrenia): approximately half of that seen in with iloperidone treatment
